Measured values: paper PMC5913603, “Structure–activity relationships of strigolactones via a novel, quantitative in planta bioassay” (Journal of Experimental Botany, 2018)
Read-outs that look alike come from different tables or passages of the source.

Assays:
[1] = system: Phelipanche aegyptiaca seeds; experiment: Germination-inducing activity on parasitic seeds; type: in vivo; conditions: for Fold lower potency than rac-GR24 (germination): compared with rac-GR24; for Concentration at which high germination activity was shown: high activity only at this concentration, germination normalized to rac-GR24 0.1 μM
Protocol: Seeds of Phelipanche aegyptiaca were collected from field-grown tomato in the West Galilee region of Israel. The seeds were stored in glass vials in the dark at room temperature until their use in germination tests. For the preparation of test solutions, the compound to be tested was weighed out very accurately, dissolved in acetone at 10^–2 M and then diluted with sterile distilled water to the desired concentrations. All solutions were prepared just before use. Seeds were surface-sterilized and preconditioned as described by [Bhattacharya et al. (2009)]. Briefly, after exposure for 5 min to 50% (v/v) aqueous solutions of commercial bleach (2% hypochlorite), seeds were rinsed with sterile distilled water. For preconditioning, seeds were placed on glass fibre filter discs using a sterile toothpick (approximately 50 seeds per disc); the glass fibre discs were placed on two filter paper discs, wetted with sterile distilled water, and incubated at 25 °C in the dark for 6 d. The preconditioned seeds were then allowed to dry completely in a laminar flow cabinet, after which they were treated with each compound at five different concentrations: 10^–5 M, 10^–6 M, 10^–7 M, 10^–8 M, and 10^–9 M. Their germination rate was evaluated under a stereomicroscope 7 d after the beginning of the treatment. For each concentration, at least 250 seeds were scored; synthetic SL rac-GR24 was included as a positive control across the same range of concentrations, while a solution of 0.001% acetone in sterile distilled water was included as a negative control. Seeds were scored as germinated if the radicle protruded through the seed coat 1 week after treatment. Germination values were normalized to those of rac-GR24 at 10^–7 M.
Fig. 3. Germination-inducing activity on Phelipanche aegyptiaca seeds of rac-1–9 and of strigol, ST23b, EGO10, and EDOT at different concentrations, compared to rac-GR24 0.1 μM as a positive control and to acetone as a negative control. […] The x-axis indicates the range of concentrations. Data are means (±SD) of n>250 seeds. Confidence intervals at 95% are used to express errors of the means. The data for rac-1–9 are indicated by ‘D-lactams’.

[2] = Chemical stability in aqueous solutions, degradation followed by HPLC; type: physicochemical
Protocol: The compounds were first dissolved in methanol (30%) or acetonitrile (50%) and then diluted to the final concentrations with water. The time-course of degradation was monitored by HPLC using an Agilent Technologies HPLC chromatograph 1200 Series equipped with a photo-diode array (PDA) detector, a binary-gradient high-pressure pump, and an automatic sampler. The column used was a LiChroCART® 125-4 LiChrospher® 100 RP-18 (5 μm, Merck Millipore) maintained at 25 °C. The solvents were (A) water + 0.1% formic acid and (B) acetonitrile, and the flow rate was 0.8 ml min^–1. The initial mobile phase, 95% A / 5% B, was held for 3 min and then ramped linearly to 100% B at 23 min and held for 5 min before resetting to the original conditions. The sample injection volume was 10 μl. PDA detection was by absorbance in the 200–600-nm wavelength range. Peak detection was at the optimum wavelength (254 nm) and peak areas were used for quantification. Initial and subsequent measurements of peak area attributable to the tested compound were used to fit exponential half-life curves and to calculate first-order rate constants. Stability data allowed for calculation of the time in hours for half of the tested compound to be hydrolysed (t1/2).
Natural and synthetic SLs are rather sensitive to hydrolysis at pH 7 and are readily decomposed through the cleavage of the D-ring at pH 9.38 ([Vurro et al., 2016]). Therefore, differences in activity among SL analogues may be attributed to their instability in the aqueous medium. In order to address this point, the stability in aqueous solutions of the newly synthesized SL-D-lactams was tested, and compared to the (+)-GR24 standard ([Kannan and Zwanenburg, 2014]; [Halouzka et al., 2018]). Two different conditions were considered, a 30% solution of MeOH in water and a 1:1 solution of acetonitrile in water. As expected, stability in MeOH was highly compromised for all compounds, but to a greater extent for analogues showing both the Michael acceptor function (enol ether bridge) and an unprotected N in the D-lactam ring, as for rac-3, rac-4, rac-5, and rac-7 (Table 1): after a few hours 50% of the compounds were degraded. This was not surprising from a chemical point of view, as the functional group in SL-D-lactams is an aminal, which is more prone to hydrolysis than the acetal of the natural SL skeleton. […] For rac-5, the NH compound in the EGO10 family, the half-life dropped to 2 h.

[3] = molecular target: T1, AtD14 fused to firefly luciferase (D14::LUC) (Arabidopsis thaliana, UniProt Q9SQR3); experiment: Luminometer (luciferase) assay: D14::LUC degradation in transgenic Arabidopsis seedlings; type: in vivo; conditions: for Activity in the luciferase assay at 1 μM: weaker than (+)-GR24; for D14 degradation in the luciferase assay: 0.01–100 μM range, racemic mixtures
T1 construct: a pDONOR207 carrying the D14 promoter fused to the D14 CDS; expressed in transfected cells
T1 sequence (Q9SQR3 1-267): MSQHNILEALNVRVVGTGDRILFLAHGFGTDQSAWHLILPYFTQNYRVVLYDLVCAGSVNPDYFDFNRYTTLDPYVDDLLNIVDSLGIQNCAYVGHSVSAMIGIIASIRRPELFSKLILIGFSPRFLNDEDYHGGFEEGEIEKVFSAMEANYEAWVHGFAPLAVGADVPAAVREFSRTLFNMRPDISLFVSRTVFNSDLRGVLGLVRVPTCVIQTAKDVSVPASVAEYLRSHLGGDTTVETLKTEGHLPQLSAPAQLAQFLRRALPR
Protocol: A binary D14p::D14::LUC vector was obtained by LR-recombination (Invitrogen) of a pDONOR207 carrying the D14 promoter fused to the D14 CDS ([Chevalier et al., 2014]) in pGWB435 ([Nakagawa et al., 2007]). Transgenic D14::D14::LUC Arabidopsis plants were generated by agroinfiltration of Col-0 plants using the floral dip method ([Clough and Bent, 1998]). Seeds were surface-sterilized with an 8% aqueous solution of commercial bleach in distilled water for 5 min and rinsed five times with sterile distilled water. Sterile seeds were plated on MS medium (pH 5.8) ([Murashige and Skoog, 1962]) without sucrose solidified with 1.2% Agar, and kept at 4 °C for 3 d (stratification). Seeds were then incubated for 7 d in a growth chamber at 25 °C and a photoperiod of 16 h light/8 h dark. SL analogues and mimics (Figs 1, 2) were accurately weighed and dissolved in acetone at 10^–2 M. Five different concentrations (10^–4 M, 10^–5 M, 10^–6 M, 10^–7 M, 10^–8 M) were prepared by 1:10 serial dilutions in liquid MS medium, together with blank controls containing corresponding water and acetone volumes in the medium. D-Luciferin (potassium salt) stock was prepared at 25 mg ml^–1 in DMSO, aliquoted and stored at –80 °C until use; all other solutions were prepared just before the assay. Using tweezers, 7-d-old Arabidopsis seedlings were placed in a 96-well microtiter plate with their cotyledons facing up (one seedling per well, in 170 µl of liquid MS medium), and 15 µl of luciferin (0.125 mg ml^–1, diluted 1:200 in MS from stock) was added to each well, corresponding to 1.875 µg. The plate was covered with a transparent film with a hole poked above each well to allow for gas exchange. Measurements were taken every 15 min in a multimode reader (LB942 Tristar2 S, Berthold Technologies) for the following 24 h; the signal was allowed to stabilize for 2–3 h in the light before treatments were started by adding 15 µl per well of the different SLs in MS medium, thus reaching a final volume in each well of 200 µl and 9.4 µg ml^– of luciferin. Appropriate blank controls were added as well. Each treatment was applied to a minimum of 16 wells (seedlings), each of which was measured individually over time. The percentage efficacy of each compound molecule was calculated 6 h after treatment as a function of the decrease in D14::LUC-emitted luminescence with respect to (+)-GR24 1 µM (i.e. GR24^5DS), assuming that the latter, minus the drift of the corresponding blank control, had 100% efficacy. For calibration purposes, SL analogues that had already been characterized, namely (±)-ST23b, (±)-EGO10, and (±)-EDOT ([Prandi et al., 2011]), were tested across the same concentration range, along with (±)-strigol (Chiralix, NL). The half maximal-effective concentration (EC50) for (+)-GR24 was calculated by linear regression fitting of the data (n=5, with at least three individual seedlings and values being pooled for each replicate) at the different concentrations, minus the values for acetone-treated samples (negative controls) and normalized in relation to (+)-GR24 0.01 μM, which was set to 0%. Confidence intervals at 95% were used to express errors of the means.
D14 is a target for proteasome-dependent destruction upon interaction with its ligand(s), which explains why fluorescence of D14::GFP fusion proteins is quenched upon SL treatment in transgenic Arabidopsis ([Chevalier et al., 2014]). We exploited this molecular network to implement a quantitative activity assay that inversely correlated luminescence to perception of SL-related molecules in transgenic Arabidopsis expressing D14::LUC under the control of the D14 endogenous promoter. […] We then used the assay to test various SLs in the same range, namely strigol as an example of natural SLs; ST23b, EGO10, and EDOT (Fig. 1, all used as rac mixtures) as examples of active SL analogues; and the new set of SL-D-lactams rac-1–9 (Fig. 2).
Fig. 4. Luciferase assay. […]

[4] = aqueous acetonitrile solution in HPLC vials, pH 6.7, 1:1 acetonitrile:water, 21 °C, pH 6.7, extrapolated from plots of peak area versus time, read-out: Half-life (t1/2, h) ACN:Water, 1:1 (converted)
[5] = aqueous methanol solution in HPLC vials, pH 6.7, 30% MeOH in water, 21 °C, pH 6.7, extrapolated from plots of peak area versus time, read-out: Half-life (t1/2, h) 30% MeOH (converted)
[6] = GraphPad fit, normalized with low acetone control

half-life at 200 μg ml^–1 [2, 4]	half-life at 200 μg ml^–1 [2, 5]	Activity in the luciferase assay at 1 μM [3]	D14 degradation in the luciferase assay [3]	Compound	other results
720 h	110 h			CC1=C[C@H](O/C=C2/C(=O)O[C@@H]3c4ccccc4C[C@H]23)N(C(=O)OC(C)(C)C)C1=O (racemic) [rac-1]	Fold lower potency than rac-GR24 (germination) [1]: ~ 100 fold; Concentration at which high germination activity was shown [1]: 10 µM
140 h	21 h			CC1=C[C@H](O/C=C2/C(=O)O[C@H]3c4ccccc4C[C@@H]23)N(C(=O)OC(C)(C)C)C1=O (racemic) [rac-2]	Concentration at which some germination activity could still be detected ([1]; tested 10^-9 to 10^-5 M): 1 µM
24 h	2 h			CC1=C[C@H](O/C=C2\Cc3c(n(C)c4ccccc34)C2=O)NC1=O (racemic) [rac-5]	
528 h	190 h			CC1=C[C@H](O/C=C2\Cc3c([nH]c4ccccc34)C2=O)N(C(=O)OC(C)(C)C)C1=O (racemic) [rac-6]	
17 h	11 h			CC1=C[C@H](Oc2ccc(Br)cc2)NC1=O (racemic) [rac-7]	Fold lower potency than rac-GR24 (germination) [1]: ~ 100 fold; Concentration at which high germination activity was shown [1]: 10 µM
1080 h	230 h			CC1=C[C@H](Oc2ccc(Br)cc2)N(C(=O)OC(C)(C)C)C1=O (racemic) [rac-8]	
				CC1=C[C@H](O/C=C2/C(=O)O[C@@H]3c4ccccc4C[C@H]23)OC1=O (racemic) [rac-GR24, reference compound]	Concentration of maximum germination activity ([1]; concentrations equal to or above): ≥ 0.1 µM
				CC1=C[C@H](O/C=C2/C(=O)O[C@@H]3c4ccccc4C[C@H]23)OC1=O [(+)-GR24]	half-life at 200 μg ml^–1 ([2]; buffer, pH 6.7, Half-life (t1/2, h) 30% MeOH): 80 h; half-life at 200 μg ml^–1 ([2]; buffer, pH 6.7, Half-life (t1/2, h) ACN:Water, 1:1): 3380 h; HILLSLOPE best-fit value (Table S1) [3, 6]: 0.4764; LOGIC50 best-fit value (Table S1) [3, 6]: -5.791; DC50 ([3]; read-out: EC50 (D14::LUC assay), 6 h after treatment, 0.01–100 μM, n=5): 1620 nM; DC50 ([3]; read-out: EC50 best-fit value (Table S1), GraphPad fit, normalized with low acetone control): 1620 nM
		significant activity	induced high levels of D14 degradation	CC1=CC(O/C=C2/C(=O)c3c(c4cc(-c5scc6c5OCCO6)ccc4n3C)C2C)OC1=O (centres unmarked) [EDOT]	
		significant activity	induced high levels of D14 degradation	CC1=CC(O/C=C2/C(=O)c3c(c4cc(-c5ccc(N(C)C)cc5)ccc4n3C)C2C)OC1=O (centres unmarked) [ST23b]	
		significant activity	induced high levels of D14 degradation	CC1=C[C@H](O/C=C2/C(=O)O[C@@H]3C4=C(C[C@H]23)[C@@H](O)CCC4(C)C)OC1=O [strigol]	

Compound	half-life at 200 μg ml^–1 [2, 4]	half-life at 200 μg ml^–1 [2, 5]	Activity in the luciferase assay at 1 μM [3]	D14 degradation in the luciferase assay [3]	other results
CC1=CC(O/C=C2\Cc3c(n(C)c4ccccc34)C2=O)OC1=O (centres unmarked) [EGO10]			significant activity	induced high levels of D14 degradation	
